Measured values: PubChem BioAssay (NCI)
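A five-concentration, 48-hour dose response in 96-well plates underlies each endpoint, interpolated linearly between surrounding concentrations. The concentration for 50% growth inhibition is given as GI50. TGI: total growth inhibition.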

Columns and labels:
Assay in all cases: NCI-60 cell line screen, 48 h
[1] = system: 786-0 renal
[2] = system: HCT-15 colon
[3] = system: MALME-3M melanoma
[4] = system: NCI-H226 lung
[5] = system: OVCAR-3 ovarian
[6] = system: SF-268 CNS
[7] = system: SF-539 CNS
[8] = system: SK-OV-3 ovarian
[9] = system: TK-10 renal
[10] = system: CAKI-1 renal

Compound	TGI [1] [µM]	TGI [2] [µM]	TGI [3] [µM]	TGI [4] [µM]	TGI [5] [µM]	TGI [6] [µM]	TGI [7] [µM]	TGI [8] [µM]	TGI [9] [µM]	GI50 [1] [µM]	GI50 [10] [µM]	TGI [10] [µM]	GI50 [2] [µM]	GI50 [4] [µM]	GI50 [5] [µM]	GI50 [6] [µM]	GI50 [7] [µM]	GI50 [8] [µM]	GI50 [9] [µM]	GI50 [3] [µM]
N/N=C(/C(=O)Nc1cccc(Cl)c1)C(C(=O)c1ccc(O)cc1O)C1OC(=O)c2ccccc21 (stereo unspecified)	> 100	> 100	> 100	> 100	> 100	> 100	> 100	> 100	> 100											
Cc1c(C(=O)Nc2ccccc2)sc2ncn(Cc3cccc(Cl)c3)c(=O)c12	> 100	> 100		41.6	> 100	> 100	> 100	> 100	> 100	29.6	15.4	84.5	13.2	10.6	41	73.2	22.4	> 100	11.7	
CC1CCC/C1=C(/I)C(=O)c1ccccc1 (stereo unspecified)	> 100	> 100	> 100	> 100		> 100	> 100	> 100	> 100			69.5								
OC1(C23CC4CC(CC(C4)C2)C3)CSCC1(O)C12CC3CC(CC(C3)C1)C2 (stereo unspecified)	> 100		> 100	> 100	> 100	> 100	> 100	> 100	> 100			> 100								
Cc1cn(C2CC3C(COCN3O)O2)c(=O)[nH]c1=O (stereo unspecified)	> 100	> 100		> 100	> 100	> 100	> 100	> 100	> 100											
CCOC(=O)CC[C@H](NC(=O)c1nc[nH]c1[N+](=O)[O-])C(=O)OCC	> 100	> 100	> 100	> 100	> 100	> 100	> 100	> 100	> 100											
COc1cc(OC)c(C/C=C/c2ccccc2)cc1O	32.2	30.1	30.5	33.8	31.1	34.4	29.7		29.9			40.9								
CCCCCCCCCCCCCCCC(=O)OCC1OC(n2cc(F)c(=O)[nH]c2=O)C(N)C(O)C1O (stereo unspecified)	35.2		38.2	35.9	9.72	35.2	34.8	45.7	46.5			37.5								
CCOC(=O)/C(C1=NCCN1)=C(\O)c1ccccc1	> 100	> 100	> 100	> 100	> 100	> 100	> 100					> 100								
CC(CN(C)C)/C(=N\Nc1ccccc1)c1ccccc1 (stereo unspecified)	29.5	11.1	29.1		6.83	16.6	0.774	84.1	5.56											
CCCCCCC[CH2][Sn]([CH2]CCCCCCC)([O]c1cccc2cccnc12)[O]c1cccc2cccnc12	2.84	10.8	2.9	5.53	6.62	10.7	4.68		13.7	1.49	2.54	8.41	2.53	2.24	1.85	2.68	2.05		3.85	1.44
CC1(C)C2CCC13C(=O)C1OC3(C2)C2C(=O)c3ccccc3C(=O)C12 (stereo unspecified)	> 100	> 100	> 100	> 100		> 100	> 100	> 100	> 100	> 100	21.9	72.8	79.4	> 100		> 100	> 100	> 100	> 100	39.7
O=C1NC(Nc2ccccc2)=NC(C(F)(F)F)(C(F)(F)F)N1	> 100	> 100	> 100	> 100	> 100	> 100	> 100	> 100	> 100											
COc1ccc(CCN2CC=Cn3c2nc2ccccc2c3=O)cc1	31.6	> 45.7		> 85.8	0.0605	> 60.8	0.0627	> 89.7	> 100	0.0445	0.0576	> 100	0.0185	0.101	0.0214	0.104	0.0209	0.0559	40	
CC(=O)Nc1ccc(S(=O)(=O)N/N=C/CN2C(=O)c3ccccc3C2=O)cc1	> 100	> 100	> 100	> 100		> 100	> 100		> 100			> 100								
COc1cc2ccnc3c2c(c1OC)-c1coc(SC)c1-3	> 100	> 100	> 100			> 100	> 100	> 100	> 100			> 100								
C=C1C(O)C2C(=C(CC)C13CC3)C(=O)C(C)(C)C2OC (stereo unspecified)	> 100	> 100	> 100		> 100	> 100	> 100	> 100	> 100	> 100	76.5	> 100	59		40.3	> 100	54.4	> 100	> 100	> 100
CC(C)CCCC(C)[C@H]1CCC2[C@@H]3CCC4Cc5nc6c(nc5C[C@]4(C)C3CC[C@@]21C)CC1CC[C@@H]2C(CC[C@@]3(C)C2CC[C@@H]3C(C)CCCC(C)C)[C@@]1(C)C6 (stereo partly specified)	> 100	> 100	> 100	> 100	> 100	> 100	> 100	> 100	> 100											
C=C/C=C/NC(=O)OCc1ccccc1	> 100				> 100	> 100		> 100	> 100			> 100								
CC(=O)N1CC(C)(C)c2c(C)c(O)c(C)c(C)c21	> 100	> 100		> 100	> 100	> 100	> 100	> 100	> 100											
